Target: T1, mouse TRPM3α2 (mTRPM3) ion channel (Mus musculus, UniProt J9SQF3)
T1 construct: expressed in transfected cells; host or cells: flip-in (Flp-In) HEK293
Experiment: Monitoring the TRPM3 ion channel driven Ca2+ uptake (Fluo-4 AM assay)
Type: cell-based
Settings: mTRPM3alpha2 overexpressing flip-in HEK293 cells, stimulated with Pregnenolone sulfate (PS) 50 μM
Protocol: In order to monitor the inhibition of the mouse TRPM3α2 (mTRPM3) ion channel by the compounds of the invention, a cellular system making use of an mTRPM3alpha2 or hTRPM3 overexpressing cell line (flip-in HEK293) was used. The TRPM3 channel was stimulated/opened with Pregnenolone sulfate (PS) (50 μM) which results in Ca^2+ influx.
For mTRPM3, the intracellular Ca^2+ was measured with a Calcium responsive dye, Fluor-4 AMV ester (Invitrogen). Cells were cultured until a confluence of 80-90%, washed with Versene (Invitrogen) and detached from the surface by a short incubation with 0.05% Trypsin (Invitrogen). The trypsination process was stopped by the addition of complete cell culture medium (DMEM, glutamax, 10% FCS, NEAA,Pen-Strep). Cells were collected and resuspended in Krebs buffer without Calcium at RT.
Prior the cell seeding (±2000 cells/well into a black, 384 well plate (Greiner)) the diluted compound was added in the assay plate, together with the PS dissolved in Krebs buffer containing Calcium. […] Directly after cell addition the plates were read on an Envision fluorescence reader (PerkinElmer) by an Excitation of 485 nm and emission at 535 nm.
Channel inhibition was calculated compared to a non-PS stimulated control versus a condition stimulated with PS (50 μM) with vehicle. The ability of the compounds of the invention to inhibit this activity was determined as: Percentage inhibition=[1−((RFU determined for sample with test compound present−RFU determined for sample with positive control inhibitor) divided by (RFU determined in the presence of vehicle−RFU determined for sample with positive control inhibitor))]*100.
The activities of the Example compounds tested are depicted in the table below. The activity ranges A, B and C refer to IC50 values in the Fluo-4 AM assay as follows: “A”: IC50<1 μM; “B”: 1 μM≤IC50≤20 μM and “C”: IC50>20 μM

T1 sequence (J9SQF3 1-1709 isoform J9SQF3-12): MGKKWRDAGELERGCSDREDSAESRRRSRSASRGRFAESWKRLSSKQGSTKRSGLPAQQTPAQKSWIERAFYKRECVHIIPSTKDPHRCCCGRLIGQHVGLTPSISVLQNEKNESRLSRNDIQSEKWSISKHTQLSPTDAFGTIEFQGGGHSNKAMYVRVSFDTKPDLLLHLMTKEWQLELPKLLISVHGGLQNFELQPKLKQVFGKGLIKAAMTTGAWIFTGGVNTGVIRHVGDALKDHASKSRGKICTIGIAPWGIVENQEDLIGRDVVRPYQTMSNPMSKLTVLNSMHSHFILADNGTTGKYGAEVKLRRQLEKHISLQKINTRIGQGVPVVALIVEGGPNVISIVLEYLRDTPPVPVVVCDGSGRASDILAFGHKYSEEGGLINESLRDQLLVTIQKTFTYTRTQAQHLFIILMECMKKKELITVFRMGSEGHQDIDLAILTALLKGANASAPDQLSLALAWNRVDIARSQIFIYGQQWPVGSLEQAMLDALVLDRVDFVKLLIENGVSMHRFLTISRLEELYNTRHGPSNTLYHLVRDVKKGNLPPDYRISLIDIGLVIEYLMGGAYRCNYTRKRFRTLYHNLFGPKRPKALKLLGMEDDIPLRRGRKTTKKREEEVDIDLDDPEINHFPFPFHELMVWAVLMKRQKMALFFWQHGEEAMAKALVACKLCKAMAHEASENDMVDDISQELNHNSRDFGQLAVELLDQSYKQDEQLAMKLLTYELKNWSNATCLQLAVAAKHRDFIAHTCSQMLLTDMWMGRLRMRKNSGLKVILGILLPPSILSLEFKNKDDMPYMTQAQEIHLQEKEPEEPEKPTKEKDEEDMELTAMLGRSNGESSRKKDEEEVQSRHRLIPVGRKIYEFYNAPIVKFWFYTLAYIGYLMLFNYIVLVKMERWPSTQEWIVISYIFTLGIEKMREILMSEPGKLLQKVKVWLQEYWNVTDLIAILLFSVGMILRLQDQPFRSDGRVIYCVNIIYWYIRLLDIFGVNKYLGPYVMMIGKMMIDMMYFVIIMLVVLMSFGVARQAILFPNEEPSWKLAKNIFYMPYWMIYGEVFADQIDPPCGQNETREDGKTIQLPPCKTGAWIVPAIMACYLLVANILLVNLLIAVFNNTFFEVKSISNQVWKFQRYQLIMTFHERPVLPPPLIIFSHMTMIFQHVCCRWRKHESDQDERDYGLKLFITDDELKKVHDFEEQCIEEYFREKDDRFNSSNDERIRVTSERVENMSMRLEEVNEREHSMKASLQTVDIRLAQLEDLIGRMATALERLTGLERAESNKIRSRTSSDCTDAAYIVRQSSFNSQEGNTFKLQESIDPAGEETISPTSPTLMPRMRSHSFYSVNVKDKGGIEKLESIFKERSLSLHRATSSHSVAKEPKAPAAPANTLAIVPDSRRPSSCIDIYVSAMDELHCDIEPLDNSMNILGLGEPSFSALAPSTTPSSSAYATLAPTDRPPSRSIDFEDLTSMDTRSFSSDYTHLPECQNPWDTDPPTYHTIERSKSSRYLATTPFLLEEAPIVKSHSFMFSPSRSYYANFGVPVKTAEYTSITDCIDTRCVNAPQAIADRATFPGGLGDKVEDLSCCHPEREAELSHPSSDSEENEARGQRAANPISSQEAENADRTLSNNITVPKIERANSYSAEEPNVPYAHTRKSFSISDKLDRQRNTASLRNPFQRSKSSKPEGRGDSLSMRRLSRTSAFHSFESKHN

| SMILES | IC50 [nM] |
| --- | --- |
| Cc1oc2ccc(OCC3CC3(F)F)cc2c1C(=O)N[C@@H](CO)C(N)=O (single isomer, unassigned) [Cpd 002 - En1] | < 1000 |
| Cc1oc2ccc(OCC3CC3(F)F)cc2c1C(=O)N[C@@H](CO)C(N)=O (single isomer, unassigned) [Cpd 002 - En2] | < 1000 |
| Cc1oc2ccc(OCC3(C(F)F)CC3)cc2c1C(=O)NC(C)(CO)C(N)=O (single isomer, unassigned) [Cpd 014 - En1, 2-[(5-{[1-(difluoromethyl)cyclopropyl]methoxy}-2-methyl-1-benzofuran-3-yl)formamido]-3-hydroxy-2-methylpropanamide] | < 1000 |
| Cc1oc2ccc(OCC3(C(F)F)CC3)cc2c1C(=O)NC(C)(CO)C(N)=O (single isomer, unassigned) [Cpd 014 - En2, 2-[(5-{[1-(difluoromethyl)cyclopropyl]methoxy}-2-methyl-1-benzofuran-3-yl)formamido]-3-hydroxy-2-methylpropanamide] | < 1000 |
| Cc1oc2ccc(OCC3CC3)cc2c1C(=O)NC(C)(CO)C(N)=O (single isomer, unassigned) [Cpd 017 - En1, 2-{[5-(cyclopropylmethoxy)-2-methyl-1-benzofuran-3-yl]formamido}-3-hydroxy-2-methylpropanamide] | < 1000 |
| Cc1oc2ccc(OCC3CC3)cc2c1C(=O)NC(C)(CO)C(N)=O (single isomer, unassigned) [Cpd 017 - En2, 2-{[5-(cyclopropylmethoxy)-2-methyl-1-benzofuran-3-yl]formamido}-3-hydroxy-2-methylpropanamide] | < 1000 |
| Cc1oc2ccc(OCC3CCC3)cc2c1C(=O)NC1CCNCC1(F)F (single isomer, unassigned) [Cpd 019 - En1, 5-(cyclobutylmethoxy)-N-(3,3-difluoropiperidin-4-yl)-2-methyl-1-benzofuran-3-carboxamide] | 1000 to 20000 |
| Cc1oc2ccc(OCC3CCC3)cc2c1C(=O)NC1CCNCC1(F)F (single isomer, unassigned) [Cpd 019 - En2, 5-(cyclobutylmethoxy)-N-(3,3-difluoropiperidin-4-yl)-2-methyl-1-benzofuran-3-carboxamide] | < 1000 |
| Cc1oc2ccc(OCC3CC3)cc2c1C(=O)NC1CCNCC1(F)F (single isomer, unassigned) [Cpd 024-En1, 5-(cyclopropylmethoxy)-N-(3,3-difluoropiperidin-4-yl)-2-methyl-1-benzofuran-3-carboxamide] | 1000 to 20000 |
| Cc1oc2ccc(OCC3CC3)cc2c1C(=O)NC1CCNCC1(F)F (single isomer, unassigned) [Cpd 024-En2, 5-(cyclopropylmethoxy)-N-(3,3-difluoropiperidin-4-yl)-2-methyl-1-benzofuran-3-carboxamide] | < 1000 |
| Cc1oc2ccc(OCC3CC3)cc2c1C(=O)NC1(CO)CCCNC1=O (single isomer, unassigned) [Cpd 027 - En1, 5-(cyclopropylmethoxy)-N-[3-(hydroxymethyl)-2-oxopiperidin-3-yl]-2-methyl-1-benzofuran-3-carboxamide] | < 1000 |
| Cc1oc2ccc(OCC3CC3)cc2c1C(=O)NC1(CO)CCCNC1=O (single isomer, unassigned) [Cpd 027 - En2, 5-(cyclopropylmethoxy)-N-[3-(hydroxymethyl)-2-oxopiperidin-3-yl]-2-methyl-1-benzofuran-3-carboxamide] | 1000 to 20000 |
| Cc1oc2ccc(OCC3CC3)cc2c1C(=O)NC1(CO)CCNC1=O (single isomer, unassigned) [Cpd 028 - En1, 5-(cyclopropylmethoxy)-N-[3-(hydroxymethyl)-2-oxopyrrolidin-3-yl]-2-methyl-1-benzofuran-3-carboxamide] | < 1000 |
| Cc1oc2ccc(OCC3CC3)cc2c1C(=O)NC1(CO)CCNC1=O (single isomer, unassigned) [Cpd 028 - En2, 5-(cyclopropylmethoxy)-N-[3-(hydroxymethyl)-2-oxopyrrolidin-3-yl]-2-methyl-1-benzofuran-3-carboxamide] | < 1000 |
| Cc1oc2ccc(OCC3CC3(F)F)cc2c1C(=O)NC1CCNCC1(F)F (single isomer, unassigned) [Cpd 031 - En1, 5-[(2,2-difluorocyclopropyl)methoxy]-N-(3,3-difluoropiperidin-4-yl)-2-methyl-1-benzofuran-3-carboxamide] | 1000 to 20000 |
| Cc1oc2ccc(OCC3CC3(F)F)cc2c1C(=O)NC1CCNCC1(F)F (single isomer, unassigned) [Cpd 031 - En2, 5-[(2,2-difluorocyclopropyl)methoxy]-N-(3,3-difluoropiperidin-4-yl)-2-methyl-1-benzofuran-3-carboxamide] | < 1000 |
| Cc1oc2ccc(OCC3CC3(F)F)cc2c1C(=O)NC1CCNCC1(F)F (single isomer, unassigned) [Cpd 031 - En3, 5-[(2,2-difluorocyclopropyl)methoxy]-N-(3,3-difluoropiperidin-4-yl)-2-methyl-1-benzofuran-3-carboxamide] | 1000 to 20000 |
| Cc1oc2ccc(OCC3CC3(F)F)cc2c1C(=O)NC1CCNCC1(F)F (single isomer, unassigned) [Cpd 031 - En4, 5-[(2,2-difluorocyclopropyl)methoxy]-N-(3,3-difluoropiperidin-4-yl)-2-methyl-1-benzofuran-3-carboxamide] | < 1000 |
| Cc1oc2ccc(OCC3(C)CC3)cc2c1C(=O)NC1CCNCC1(F)F (single isomer, unassigned) [Cpd 032 - En1, N-(3,3-difluoropiperidin-4-yl)-2-methyl-5-[(1-methylcyclopropyl)methoxy]-1-benzofuran-3-carboxamide] | < 1000 |
| Cc1oc2ccc(OCC3(C)CC3)cc2c1C(=O)NC1CCNCC1(F)F (single isomer, unassigned) [Cpd 032 - En2, N-(3,3-difluoropiperidin-4-yl)-2-methyl-5-[(1-methylcyclopropyl)methoxy]-1-benzofuran-3-carboxamide] | 1000 to 20000 |
| Cc1oc2ccc(OCC3CC3(C)C)cc2c1C(=O)NC1CCNCC1(F)F (single isomer, unassigned) [Cpd 033-En1, N-(3,3-difluoropiperidin-4-yl)-5-[(2,2-dimethylcyclopropyl)methoxy]-2-methyl-1-benzofuran-3-carboxamide] | 1000 to 20000 |
| Cc1oc2ccc(OCC3CC3(C)C)cc2c1C(=O)NC1CCNCC1(F)F (single isomer, unassigned) [Cpd 033-En2, N-(3,3-difluoropiperidin-4-yl)-5-[(2,2-dimethylcyclopropyl)methoxy]-2-methyl-1-benzofuran-3-carboxamide] | 1000 to 20000 |
| Cc1oc2ccc(OCC3CC3(C)C)cc2c1C(=O)NC1CCNCC1(F)F (single isomer, unassigned) [Cpd 033-En3, N-(3,3-difluoropiperidin-4-yl)-5-[(2,2-dimethylcyclopropyl)methoxy]-2-methyl-1-benzofuran-3-carboxamide] | < 1000 |
| Cc1oc2ccc(OCC3CC3(C)C)cc2c1C(=O)NC1CCNCC1(F)F (single isomer, unassigned) [Cpd 033-En4, N-(3,3-difluoropiperidin-4-yl)-5-[(2,2-dimethylcyclopropyl)methoxy]-2-methyl-1-benzofuran-3-carboxamide] | 1000 to 20000 |
| Cc1oc2ccc(OCC3CC3)cc2c1C(=O)NC1(C(N)=O)CCOC1 (single isomer, unassigned) [Cpd 035 - En1, N-(3-carbamoyloxolan-3-yl)-5-(cyclopropylmethoxy)-2-methyl-1-benzofuran-3-carboxamide] | < 1000 |
| Cc1oc2ccc(OCC3CC3)cc2c1C(=O)NC1(C(N)=O)CCOC1 (single isomer, unassigned) [Cpd 035 - En2, N-(3-carbamoyloxolan-3-yl)-5-(cyclopropylmethoxy)-2-methyl-1-benzofuran-3-carboxamide] | < 1000 |
| Cc1oc2ccc(OCC3(C(F)F)CC3)cc2c1C(=O)NC1(C(N)=O)CCOC1 (single isomer, unassigned) [Cpd 036 - En1, N-(3-carbamoyloxolan-3-yl)-5-{[1-(difluoromethyl)cyclopropyl]methoxy}-2-methyl-1-benzofuran-3-carboxamide] | 1000 to 20000 |
| Cc1oc2ccc(OCC3(C(F)F)CC3)cc2c1C(=O)NC1(C(N)=O)CCOC1 (single isomer, unassigned) [Cpd 036 - En2, N-(3-carbamoyloxolan-3-yl)-5-{[1-(difluoromethyl)cyclopropyl]methoxy}-2-methyl-1-benzofuran-3-carboxamide] | < 1000 |
| Cc1oc2ccc(OCC(F)F)cc2c1C(=O)NC(C)(CO)C(N)=O (single isomer, unassigned) [Cpd 041 - En1, 2-{[5-(2,2-difluoroethoxy)-2-methyl-1-benzofuran-3-yl]formamido}-3-hydroxy-2-methylpropanamide] | < 1000 |

— US20250320189A1, “NEW DERIVATIVES FOR TREATING TRPM3 MEDIATED DISORDERS” (Katholieke Universiteit Leuven, priority 2022, published 2025)
